Results published in the supplement of paper PMC8253809.

What was measured:
DIPGX29 [1] = H3.3 K27M diffuse intrinsic pontine glioma line; test: EC50 (inflection of fitted growth-inhibition curve) (log10 M)
In short: (§1)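 Compounds were delivered by pin tool as a 10-point threefold dilution series with a mean top concentration of 35 μM, in triplicate, to patient-derived pHGG/DIPG cell lines and astrocyte controls growing on 1% Geltrex-coated 384-well plates. Incubation lasted 7 days, or 3 days for iAstro, at 37 °C with 5% CO2. EC50 and maximal response (yFin) come from the three- or four-parameter log-logistic fit with the lowest AICc, applied to pooled, log2-transformed CellTiter-Glo luminescence normalised per plate to % activity between solvent (negative) and positive control wells.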

DIPGX37 [2] = H3.3 K27M diffuse intrinsic pontine glioma line; test: as above
In short: as §1

HGGX39 [3] = paediatric high-grade glioma line; test: as above
In short: as §1

HGGX6 [4] = H3.3 G34R paediatric high-grade glioma line; test: as above
In short: as §1

DIPGX29 [5] = test: maximal growth inhibition (yFin) relative to DMSO / staurosporine; higher = more efficacious
In short: as §1

DIPGX37 [6] = test: as above
In short: as §1

HGGX39 [7] = test: as above
In short: as §1

HGGX6 [8] = test: as above
In short: as §1

DIPGX29 [9] = test: area under dose-response curve of % growth inhibition (log2 RLU vs DMSO / staurosporine), 1e-11 to 1e-4 M (% x log10 M); higher = more growth inhibition
In short: (§2)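 Area under the curve was derived with the trapezoid rule from a fitted log-logistic curve, switching to a smoothing spline if the sigmoid fit failed. It rested on per-plate % activity between solvent and positive controls, calculated from log2-transformed CellTiter-Glo luminescence after 7 days of exposure (3 days for iAstro) at 37 °C, 5% CO2. Patient-derived pHGG/DIPG lines and astrocytes on 1% Geltrex-coated 384-well plates received a 10-point threefold dilution series, mean top concentration 35 μM, in triplicate.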

DIPGX37 [10] = test: as above
In short: as §2

HGGX39 [11] = test: as above
In short: as §2

HGGX6 [12] = test: as above
In short: as §2

Structure (SMILES) | EC50 (log10 M) (DIPGX29 [1]) | EC50 (log10 M) (DIPGX37 [2]) | EC50 (log10 M) (HGGX39 [3]) | EC50 (log10 M) (HGGX6 [4]) | maximal growth inhibition (DIPGX29 [5]) | maximal growth inhibition (DIPGX37 [6]) | maximal growth inhibition (HGGX39 [7]) | maximal growth inhibition (HGGX6 [8]) | area under dose-response curve (DIPGX29 [9]) | area under dose-response curve (DIPGX37 [10]) | area under dose-response curve (HGGX39 [11]) | area under dose-response curve (HGGX6 [12])
CCCCc1oc2ccccc2c1C(=O)c1cc(I)c(OCCN(CC)CC)c(I)c1 [AMIODARONE] | -4.79 | -4.76 | -4.83 | -4.8 | 80% | 83% | 89.3% | 78.8% | 63.6 | 63.2 | 74.6 | 63
CCOC(=O)Nc1cc(-c2ccc(C)c(NS(C)(=O)=O)c2)nn2c(C)nnc12 [BROMOSPORINE] | -5.25 | -5.23 | -5.01 | -5.51 | 25.2% | 53.4% | 42.7% | 21.4% | 32.2 | 66.5 | 43.6 | 33
Clc1ccc(CSC(Cn2ccnc2)c2ccc(Cl)cc2Cl)cc1 (configuration not stated) [SULCONAZOLE] | -4.86 | -4.68 | -4.87 | -4.87 | 45.9% | 61.3% | 34.1% | 44.1% | 48.2 | 41.8 | 39.2 | 44.2
CC[C@H](CC#N)OC(=O)N[C@@H](C)c1cccc(NC(=O)Nc2ccc(-c3cnco3)c(OC)c2)c1 [AVN-944] | -6.32 | -6.4 | -5.67 | -5.95 | 34.3% | 35.2% | 39.3% | 27.9% | 79.5 | 84.4 | 54.3 | 48
[O-][n+]1ccccc1[S-].[O-][n+]1ccccc1[S-].[Zn+2] [PYRITHIONE ZINC] | -5.6 | -5.23 | -5.61 | -5.55 | 82.5% | 93.1% | 83.5% | 75.7% | 130 | 112 | 135 | 116
CCOC(=O)C1=C(COCCN)NC(C)=C(C(=O)OC)C1c1ccccc1Cl (configuration not stated) [AMLODIPINE] | -4.86 | -4.82 | -4.83 | -4.75 | 80.4% | 88% | 91.4% | 85.6% | 69.2 | 72.4 | 75.8 | 64.5
CCCCOc1ccc(CC(=O)NO)cc1 [BUFEXAMAC] | -4.28 | -4.2 | -4.28 | -4.33 | 57.1% | 76.7% | 95.6% | 79.2% | 15.7 | 15.4 | 27.2 | 25.5
Cc1cccc(CN2CCN(C(c3ccccc3)c3ccc(Cl)cc3)CC2)c1 (configuration not stated) [MECLIZINE] | -4.89 | -4.83 | -4.91 | -4.86 | 41.9% | 79.1% | 48.7% | 41.1% | 42.8 | 85.1 | 44.3 | 35.5
COc1cc(OC2CCN(C)CC2)ccc1Nc1ncc2c(n1)n(C1CCCC1)c(=O)n2C [AZ3146] | -4.86 | -4.79 | -4.85 | -4.82 | 103% | 110% | 105% | 96.5% | 92.5 | 86.8 | 88.5 | 86.9
Nc1cc(C(F)(F)F)c(-c2cc(N3CCOCC3)nc(N3CCOCC3)n2)cn1 [BUPARLISIB] | -5.14 | -5.55 | -5.56 | -6.21 | 67.8% | 59.3% | 41.2% | 21.8% | 81.3 | 95.5 | 58.2 | 43.9
Cc1nc(-c2cn3c(n2)-c2ccc(-c4cnn(C(C)(C)C(N)=O)c4)cc2OCC3)n(C(C)C)n1 [TASELISIB] | -5.8 | -6.36 | -5.49 | -6.13 | 63.3% | 56.7% | 47.5% | 38.8% | 122 | 138 | 74.8 | 86
Cc1ccc(NC(=O)c2ccc(CN3CCN(C)CC3)cc2)cc1Nc1nc(-c2cccnc2)cs1 [MASITINIB] | -4.69 | -4.65 | -4.71 | -4.66 | 72.3% | 81% | 81.1% | 78.3% | 57.8 | 52.8 | 66.4 | 64.6
CN(C)C(=O)C(CCN1CCC(O)(c2ccc(Cl)cc2)CC1)(c1ccccc1)c1ccccc1 [LOPERAMIDE] | -4.79 | -4.74 | -4.75 | -4.74 | 81.5% | 93.9% | 80.5% | 79.2% | 75.5 | 84 | 60.8 | 58.7
CCCCCCCCCCCC[N+](C)(C)CCOc1ccccc1 [DOMIPHEN] | -5.18 | -5.28 | -5.59 | -5.11 | 80.5% | 85.2% | 81% | 71.7% | 95.4 | 109 | 129 | 79.9
CCC(C)(C)c1ccc(CC(C)CN2C[C@@H](C)O[C@@H](C)C2)cc1 (some centres not stated) [AMOROLFINE] | -5.09 | -5.29 | -5.11 | -5.36 | 33.2% | 48% | 72.1% | 41.6% | 47.6 | 62.1 | 103 | 58.4
NCCOc1cc(C(=O)Nc2cc(OCCN)c3ccccc3n2)nc(C(=O)Nc2cc(OCCN)c3ccccc3n2)c1 [PYRIDOSTATIN] | -5.01 | -5 | -4.99 | -5.03 | 61% | 31.7% | 59.6% | 56.9% | 74 | 54 | 58.1 | 82.2
